Patent US11028113B2, “Cyphomycin, compositions and uses thereof” (Wisconsin Alumni Research Foundation, priority 2018, dated 2021)
≈ marks a conversion by molar mass, not a printed value.

Key:
Format in all cases: cell-based
Candida auris B11211 = assay: In vitro MIC susceptibility testing, broth microdilution (CLSI M27-A3); conditions: Candidozyma auris; Candida auris B11211, Amphotericin B resistance phenotype; 50% reduction in growth turbidity at 600 nm; median of replicate assays; read-out: Cyphomycin MIC
Method: (§1) In vitro MIC susceptibility testing. MICs of Cyphomycin for the Candida isolates were determined using a broth microdilution method in accordance with the guidelines presented in Clinical and Laboratory Standards Institute (CLSI) document M27-A3 for Candida and M38-A2 for Aspergillus^36,38. MIC values of cyphomycin were defined as the lowest concentration at which a prominent decrease in growth turbidity (i.e., 50% reduction in growth determined spectrophotometrically) relative to the turbidity of the compound-free control at 600 nm was observed. Median MIC from replicate assays is reported. Results are shown in Table 1 for cyphomycin activity against drug-resistant fungi.

Candida glabrata 4720 = assay: as above; conditions: Nakaseomyces glabratus; Candida glabrata 4720, Echinocandin resistance phenotype; 50% reduction in growth turbidity at 600 nm; median of replicate assays; read-out: Cyphomycin MIC
Method: as §1

[1] = system: Aspergillus fumigatus 11628; assay: In vitro MIC susceptibility testing, broth microdilution (CLSI M38-A2); conditions: Aspergillus fumigatus 11628, Triazole resistance phenotype; 50% reduction in growth turbidity at 600 nm; median of replicate assays; read-out: Cyphomycin MIC
Method: as §1

CCC(OC1CC(C)(O)C(OC2CCC(OC(=O)C(C)C(O)c3ccc4c(c3)C(=O)C=C(C)C4=O)C(C)O2)C(C)O1)C(C)C(O)C(C)C(O)C(C)C1OC(=O)/C=C/C(C)C(O)CC(O)CCCC(O)CCC(C)C(O)C(=O)C2(O)CC(O)CC(CC(O)CC(O)CC(O)CCCC(O)/C=C/C1C)O2 (stereo not drawn) [Cyphomycin, cyphomycin]
MIC (Candida auris B11211): 4 µg/mL (≈ 2.73 µM) | MIC (Candida glabrata 4720): 0.5 µg/mL (≈ 0.342 µM) | MIC [1]: 0.5 µg/mL (≈ 0.342 µM)
